# Tests used:
# [1] = target: T1, Steroid 17-alpha-hydroxylase/17,20 lyase (Homo sapiens, UniProt P05093); experiment: Inhibition of Cytochrome P450 17; Inactive
# T1 sequence (P05093 whole entry): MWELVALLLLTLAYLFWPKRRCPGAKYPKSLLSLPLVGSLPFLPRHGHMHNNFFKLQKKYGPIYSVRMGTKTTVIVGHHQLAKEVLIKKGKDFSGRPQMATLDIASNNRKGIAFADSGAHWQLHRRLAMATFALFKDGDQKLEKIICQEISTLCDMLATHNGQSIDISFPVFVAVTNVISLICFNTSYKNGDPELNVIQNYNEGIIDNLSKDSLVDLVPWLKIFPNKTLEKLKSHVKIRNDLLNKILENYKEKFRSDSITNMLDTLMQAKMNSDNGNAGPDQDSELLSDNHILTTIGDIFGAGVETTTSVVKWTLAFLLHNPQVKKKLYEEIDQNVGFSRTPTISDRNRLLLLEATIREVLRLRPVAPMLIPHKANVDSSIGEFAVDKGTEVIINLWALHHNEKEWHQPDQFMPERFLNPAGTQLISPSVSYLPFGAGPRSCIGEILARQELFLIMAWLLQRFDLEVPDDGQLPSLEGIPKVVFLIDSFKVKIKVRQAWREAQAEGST
# [2] = target: T1, Steroid 17-alpha-hydroxylase/17,20 lyase; experiment: Inhibition of Cytochrome P450 17
IA [1],Inhibition [2] [nM],SMILES
Not Active,,N#Cc1ccc(Cn2ccnc2)c2oc3ccccc3c(=O)c12
,42,O=c1c2ccccc2oc2c(Br)ccc(Cn3ccnc3)c12

# — ChEMBL document CHEMBL1135794, “Looking for selectivity among cytochrome P450s inhibitors” (J Med Chem, 2002)
